In PubChem BioAssay AID2788 (Southern Research Specialized Biocontainment Screening …, 2010):
Activity calls are given as the source filed them.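 How the source made its calls: active means compound cutting the HIV-1 infection reporter signal by at least half at some tested dose; inactive means the rest.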

Tested on: MAGI-CCR5 cells, HIV-1 Ba-L, beta-gal luminescence, 48 h
Test: HIV-1 replication inhibition, CCR5-tropic virus, dose response, MAGI-CCR5 cells, HIV-1 Ba-L, 5% and 10% serum, set 2 (AID 2788)
[1] = measured here: IC50 in 10% serum

Row | SMILES | IC50 | IC50 [1]
1 | O=C1NC(=S)N(c2ccc(F)cc2)C(=O)/C1=C/c1ccco1 | 52.9 µM | 48.7 µM
2 | COc1ccccc1NS(=O)(=O)c1cccc(-n2c(O)c(C=Nc3ccccc3C(=O)O)c3ccccc3c2=O)c1 | 49 µM | 54.9 µM
3 | CS(=O)(=O)C1=NSC2=NC(=O)/C(=C\c3cccn3-c3ccc(Cl)cc3)C(=N)N21 | 63.8 µM | > 100 µM
4 | Cc1ccc(S(=O)(=O)Oc2ccc(/C=C3/C(=N)N4C(=NC3=O)SN=C4S(C)(=O)=O)cc2)cc1 | 78.5 µM | > 100 µM
5 | CC(C)S(=O)(=O)C1=NSC2=NC(=O)/C(=C\c3ccc(-c4cccc(C(=O)O)c4)o3)C(=N)N21 | 45.6 µM | 50.5 µM
6 | Cc1cc(C)cc(-n2cccc2/C=C2/C(=N)N3C(=NC2=O)SN=C3S(C)(=O)=O)c1 | 45.8 µM | 55.6 µM
7 | COc1cc(C=NNc2ccc(Cl)c(C(=O)O)c2)ccc1OC(=O)c1ccc(F)cc1 | 96.5 µM | > 100 µM
8 | CCS(=O)(=O)C1=NSC2=NC(=O)/C(=C\c3ccc(OS(=O)(=O)c4ccccc4)cc3)C(=N)N21 | > 100 µM (inactive) | > 100 µM
9 | Cc1ccc(-n2c(O)c(C=Nc3ccccc3-c3n[nH]c(=S)[nH]c3=O)c3ccccc3c2=O)c(C)c1 | 18 µM | 23 µM
10 | O=C(O)c1ccccc1C(=O)N(Cc1cccc(Oc2ccc(Cl)cc2)c1)[C@H]1CCCc2ccccc21 | 16.2 µM | 38.2 µM
11 | COc1cc(C=NNc2ccc(Cl)c(C(=O)O)c2)ccc1OC(=O)c1ccccc1F | > 100 µM (inactive) | > 100 µM
12 | COc1ccc(OC)c(N2C(=O)/C(=C/c3ccco3)C(=O)NC2=S)c1 | 58.5 µM | 52.8 µM
13 | CC(C)S(=O)(=O)C1=NSC2=NC(=O)/C(=C\c3ccc(-c4ccccc4)o3)C(=N)N21 | 21.9 µM | 44 µM
14 | O=C(O)c1cc(NN=Cc2ccc(-c3ccccc3)cc2)ccc1Cl | 94 µM | > 100 µM
15 | Cc1ccc(-n2cccc2/C=C2/C(=N)N3C(=NC2=O)SN=C3S(C)(=O)=O)cc1Cl | 47.3 µM | 60.8 µM
16 | CC1(C)CC(=O)C2=C(C1)c1c(ccc3ccccc13)NC2c1cc([N+](=O)[O-])cc([N+](=O)[O-])c1O (stereo not drawn) | 15.4 µM | 35.6 µM
17 | CS(=O)(=O)C1=NSC2=NC(=O)/C(=C\c3ccc(OS(=O)(=O)c4ccccc4)cc3)C(=N)N21 | > 100 µM (inactive) | > 100 µM
18 | COc1ccc(C(=O)Oc2ccc(C=NNc3ccc(Cl)c(C(=O)O)c3)cc2OC)cc1 | 56.4 µM | 81.4 µM
19 | O=c1c(=Cc2cc([N+](=O)[O-])cc([N+](=O)[O-])c2O)sc2nc3ccccc3n12 | 52.1 µM | > 100 µM
